Reference: paper PMC10609940, “Systemic Dendrimer-Peptide Therapies for Wet Age-Related Macular Degeneration” (Pharmaceutics, 2023)
Where a SMILES comes first, the peptide text is derived from it. [ ]: non-standard residue; d: D form. Cya = N[C@@H](CS(=O)(=O)O)C(=O)O

Key:
HUVEC cells [1] = assay: In vitro vessel (tube) formation assay on Matrigel; format: cell-based, human
Procedure: First, 96-well plates were coated with 75 µL of Matrigel and left at room temperature for 15 min before being placed into 37 °C incubators for an additional 30 min. Then, D-ALG1001 was dissolved at twice the desired concentration and 50 µL of the drug solution was added to the wells. HUVEC cells were then added to each well at a density of 70,000 cells/cm^2. Live-cell images were taken at 12 h for analysis.
To compare the dose–response efficacy of free and D-ALG in a physiologically relevant model, we utilized an in vitro model of blood vessel formation. HUVEC cells were treated with a gradient concentration of D-ALG and ALG-1001 for 24 h at three different magnitudes of doses. The cells were then seeded on Matrigel after which cells naturally migrate to form blood vessel-like tubule structures. The images were analyzed with the Angiogenesis Analyzer plug-in on ImageJ to extract relevant metrics that measure the connectivity and integrity of tube networks (Figure 3A and Figure S8).
Figure 3 In vitro inhibition of vessel formation. (A) Image analysis of HUVECs seeded onto a Matrigel matrix using the Angiogenesis Analyzer plug-in for ImageJ. […]

HUVEC cells [2] = assay: Wound-healing (scratch) assay; format: cell-based, human; settings: HUVEC monolayer pretreated 24 h; 24 h after injury; dose not stated
Procedure: HUVEC cells were seeded at a density of 5 × 10^4 cells per well in 24-well plates and set aside for at least 72 h for a uniform monolayer of cells to form. Cells were treated with D-ALG1001 and ALG-1001 for 24 h. A centimeter-long scratch was introduced to the cell monolayer with the tip of a 200 µL pipette tip. Images were taken on a Nikon
In addition to cell morphological and motility changes measured by tube formation assays, we investigated the activity of D-ALG and ALG-1001 in a wound-healing assay. Previous studies have utilized this method to assess cell migration and proliferation. Monolayers of HUVECs were pretreated with D-ALG or ALG-1001 followed by scratching the monolayer with a pipette tip. Images were taken at the time of the wound and at 24 h after injury. The proliferative activity of endothelial cells can be measured by the area that was healed postinjury to the monolayer. Untreated cells managed to heal up to 80% of the initial damage after 24 h, while cells treated with D-ALG and ALG-1001 healed up to 50% of the initial wound area. […] Because neovascularization is driven in part by the proliferation and migration of endothelial cells in the disease area, reductions in these activities as observed in cells treated with D-ALG can modulate endothelial cell contributions to the neovascularization process.

[3] = test system: phospho-ERK1/2 and phospho-FAK (Y397) in HUVEC cells; assay: Western blot of ERK and FAK pathway activation after VEGF stimulation; format: cell-based, human; settings: 100 µM on a peptide basis, 24 h pretreatment, VEGF 5 min; trend
Procedure: HUVEC cells were seeded at a density of 5 × 10^4 cells per well in 24-well plates 24 h before treatment. Cells were treated with D-ALG1001 and ALG-1001 for 24 h before activation with VEGF for 5 min. Cells were collected and lysed for Western blotting using T-Per buffer (ThermoFisher) supplemented with PhosStop and proteinase inhibitor cocktail. Cells were lysed with Trizol and processed as previously described for qPCR analysis.
In brief, the concentration of protein was determined with the BCA protein assay kit (Thermo Scientific, Rockford, IL, USA). Equal amounts of protein were denatured and resolved on 4–15% TGX gels (Bio-Rad, Hercules, CA, USA). Gels were transferred to nitrocellulose membranes, blocked with 3% BSA at RT for 1 h and probed for GAPDH, FAK, pFAK, MAPK, and pMAPK at 4 °C overnight. Membranes were washed thrice before incubation with HRP-conjugated secondary antibodies followed by incubation with chemiluminescent substrate for visualization.
To elucidate the mechanism through which D-ALG and free ALG-1001 influence angiogenic function, we pretreated the cells with D-ALG and free ALG-1001 for 24 h. The cells were then stimulated with a high dose of exogenous VEGF for 5 min after which the samples were collected for Western blotting. […]

[4] = test system: VEGF-A expression in HUVEC; assay: VEGF-A expression by endothelial cells (qPCR); format: cell-based, human; settings: HUVEC coincubated with VEGF-A
[5] = test system: IL1β and TNFα expression in RAW264.7 cells; assay: In vitro inflammation model, LPS-stimulated macrophages (qPCR); format: cell-based, Murine; settings: 24 h pretreatment, LPS 3 h
[6] = test system: FAK, p-FAK (Y397), p44/42 ERK, phospho-p44/42 ERK in choroidal tissue; assay: ELISA of FAK and ERK pathway activation in choroid, laser CNV model; format: in vivo, Brown Norway rats; settings: 150 µg peptide basis i.p. every 4 days
Procedure: (§1) On the day of CNV induction (Day 0), D-ALG1001 and ALG1001 was administered intraperitoneally at a dose of 150 µg on a peptide basis. Subsequent doses were administered every 4 days. At days 7 and 14, mice were sacrificed and enucleated. Eyes used for CNV image were fixed in 10% formalin for 1 h. Eyes used for qPCR, ELISA, and Western blotting were immediately stored at −80 °C until use.
In brief, 500 µL of T-Per supplemented with PhosStop and proteinase inhibitor cocktail was added to tubes containing dissected choroid. A scoop of 1.6 mm steel homogenization beads was added to each sample and then placed in TissueLyserLT (Qiagen, Germantown, MD, USA) at an oscillation frequency of 50 cycles/s for 15 min.
For protein extracted from tissues, total FAK and FAK (Phospho) [pY397] ELISA kits (Invitrogen) were used to quantify the level of protein expression, and the measured protein expression was normalized to the total protein amount of each sample as determined from BCA assays.
To evaluate the activation of FAK and ERK pathways, eyes were enucleated at set time points, and the choroidal tissue dissected out. Tissues were submerged in a mixture of T-per, proteinase inhibitor, and PhosStop with stainless-steel homogenization beads and homogenized to produce protein extracts. Total FAK, total ERK, p-FAK (Y397), and p-44/42 ERK ELISA kits were used to quantify the amount of total and phosphorylated proteins in FAK and ERK pathways. […] However, the level of total FAK protein in ALG-1001-treated animals was elevated at day 14.

[7] = test system: VEGF-A, TNFα, IL1β expression in choroid; assay: qPCR of VEGF-A, TNFα and IL1β in choroid, laser CNV model; format: in vivo, Brown Norway rats; settings: 150 µg peptide basis i.p. every 4 days, days 7 and 14, trend
[8] = test system: choroidal neovascularization (CNV) area; assay: In vivo attenuation of CNV formation, intraperitoneal dosing, laser CNV model; parameters: species or system Brown Norway rats
Procedure: as §1
(§2) Eyes were mounted by introducing four radial relaxation cuts. […] All images were processed with ImageJ.
We then evaluated whether the improved protection and targeting of D-ALG allowed for less invasive administration routes. A laser was used to induce CNV at day 0, and the first dose (150 µg peptide basis) of ALG-1001 and D-ALG was administered intraperitoneally. The animals were dosed once every 4 days at 150 µg of peptide basis (7.5 mg/kg). Choroidal flatmounts of eyes at day 7 and 14 were imaged, and the CNV area was calculated using ImageJ.

[9] = test system: choroidal neovascularization (CNV) area; assay: In vivo attenuation of CNV formation, intravitreal injection, laser CNV model; parameters: species or system Brown Norway rats; settings: intravitreal injection after CNV induction; day 7
Text: as §2
A Micron III SLO scope and a laser attachment were used to induce CNV formation in mice. The laser CNV model was chosen due to its consistency in creating CNV and the progression of the CNV process. We first evaluated whether dendrimer conjugation impeded the peptide from attenuating CNV by first injecting free ALG-1001 and D-ALG intravitreally after CNV induction. The eyes were then collected on day 7 and the CNV area quantified.

Compound: C[C@@H](O)[C@H](NC(=O)[C@H](CS(=O)(=O)O)NC(=O)CNC(=O)[C@H](CCCNC(=N)N)NC(=O)CN)C(=O)N1CCC[C@H]1C(=O)O [ALG-1001] (H-GRG[Cya]TP-OH; N-terminus and C-terminus assumed)
- vessel formation compared to untreated cells (HUVEC cells [1]; 1 mM, Angiogenesis Analyzer, ImageJ): significantly reduced vessel formation
- vessel formation, effect of lower doses (HUVEC cells [1]; doses below 1 mM): not effective
- initial wound area healed (HUVEC cells [2]): up to 50%
- phospho-ERK1/2 expression compared to untreated, VEGF stimulated controls [3]: lower levels
- phospho-FAK expression compared to untreated, VEGF stimulated controls [3]: lower levels
- VEGF production compared to the control [4]: did not have statistically significant increases
- impact on IL1β production ([5]; high and low dose): no impact
- reduction of TNFα expression ([5]; high dose 1 mM): 20%
- total ERK ([6]; day 7): remained relatively constant
- total ERK compared to untreated animals ([6]; day 14): slight trend in the reduction
- total FAK protein ([6]; day 14): elevated
- p-FAK protein compared to untreated controls ([6]; days 7 and 14): trend in the reduction
- IL1β expression [7]: only reduced at day 14
- TNFα level (relative expression) [7]: lower TNFα levels across both time points
- VEGF-A production (relative expression) [7]: lower VEGF-A production at 14 days only
- reduction of CNV area on day 14 ([8]; 150 µg peptide basis (7.5 mg/kg) intraperitoneally every 4 days, choroidal flatmounts, ImageJ): 20%
- CNV area at day 14 (in words) ([8]; 150 µg peptide basis intraperitoneally every 4 days): recovered
- formation of CNV after intravitreal administration [9]: significantly inhibited the formation of CNV
